Common to all, as to type: cell-based
Test [1] has as its system Staphylococcus aureus ATCC 6538. In words: Minimum inhibiting concentration (MIC value) in microtitre plates. On the set-up: unit not given here. Conditions: serial dilution 1:2, 48 hours at 37° C., <20% growth compared with growth control. As to the method:
(§1) Determination of the Minimum Inhibiting Concentration (MIC Value) in Microtitre Plates Nutrient Medium: Casein/soybean flour peptone bouillon for the preparation of the precultures of the test bacteria and yeast. Examples of Test Organisms: Bacteria: Escherichia coli ATCC 10536 (=EC) Staphylococcus aureus ATCC 6538(=SA) Procedure: The test substances are predissolved in dimethyl sulfoxide (DMSO) and tested in a serial dilution of 1:2. Bacteria and yeast are cultured overnight in CASO bouillon. All test organism suspensions are adjusted to an organism count of 1-5×10^6 CFU/ml with 0.85% sodium chloride solution. The test substances are prepipetted into microtitre plates in an amount of 8 μl per well. The previously adjusted organism suspensions are diluted 1:100 in CASO bouillon and added to the test substances in an amount of 192 μl per well. The test batches are incubated for 48 hours at 37° C. After incubation, the growth is determined by reference to the turbidity of the test batches (optical density) at 620 nm in a microplate reader. The minimum inhibiting concentration (MIC value) is the concentration of substance at which an appreciable inhibition of the growth (<20% growth compared with the growth control) of the test organisms is ascertained. Three microtitre plates are used for each test organism and substance concentration.

The subject of test [2] is Escherichia coli ATCC 10536. The test is described as above. On the set-up: unit not given here. To be noted: serial dilution 1:2, 48 hours at 37° C., <20% growth compared with growth control. The procedure:
as §1

The test system of test [3] is Staphylococcus aureus ATCC 6538. As to the kind of experiment: MIC in agar incorporation test. Conditions: GC purity 88%. As to the method:
(§2) Determination of the Minimum Inhibiting Concentration of the Compound of Formula (3) in Respect of a Wider Spectrum of Organisms The compound of formula (3) (see Table 1; GC purity 88%; prepared in accordance with Example 1) is tested on the microorganisms indicated in Table 3. The test for determining the minimum inhibiting concentration is effected in an agar incorporation test.

Test [4] relates to Staphylococcus epidermidis ATCC 12228. In words: MIC in agar incorporation test. To be noted: GC purity 88%. As to the method:
as §2

The test system of test [5] is Klebsiella pneumoniae ATCC 4352. As to the kind of experiment: MIC in agar incorporation test. Conditions: GC purity 88%. The procedure:
as §2

Test [6] relates to C. minutissimum ATCC 23348. As to the kind of experiment: MIC in agar incorporation test. To be noted: GC purity 88%. As to the method:
as §2

In test [7] the test system is Pseudomonas aeruginosa ATCC 15442. As to the kind of experiment: MIC in agar incorporation test. Conditions: GC purity 88%. As to the method: as §2
In test [8] the test system is Staphylococcus aureus ATCC 9144. As to the kind of experiment: MIC in agar incorporation test. To be noted: GC purity 88%. The procedure:
as §2

Test [9] deals with Corynebacterium xerosis ATCC 373. In words: MIC in agar incorporation test. To be noted: GC purity 88%. As to the method: as §2
Test [10] has as its system Proteus vulgaris ATCC 6896. In words: MIC in agar incorporation test. To be noted: GC purity 88%. As to the method:
as §2

Test [11] relates to Candida albicans ATCC 10231. In words: MIC in agar incorporation test. Conditions: GC purity 88%. As to the method: as §2
The test system of test [12] is Propionibacterium acnes ATCC 6919. In words: MIC in agar incorporation test. To be noted: GC purity 88%. As to the method:
as §2

Test [13] concerns Salmonella choleraesuis ATCC 9184. As to the kind of experiment: MIC in agar incorporation test. Conditions: GC purity 88%. The procedure:
as §2

Test [14] relates to Aspergillus niger ATCC 6275. In words: MIC in agar incorporation test. Conditions: GC purity 88%. As to the method:
as §2

The subject of test [15] is Escherichia coli ATCC 10536. As to the kind of experiment: MIC in agar incorporation test. To be noted: GC purity 88%. As to the method:
as §2

Test [16] has as its system Escherichia coli NCTC 8196. In words: MIC in agar incorporation test. Conditions: GC purity 88%. As to the method:
as §2

On to `CCCNCc1ccc(-c2ccc(CNCCC)cc2)cc1` [Compound of formula 2], for which the “MIC value ATCC 6538” value in test [1] was found to be 15. The “MIC value ATCC 10536” value in [2] is listed as 15.
For `CCCCCCCCNCc1ccc(-c2ccc(CNCCCCCCCC)cc2)cc1` [Compound of formula 3, octyl-(4′-octylaminomethyl-biphenyl-4-ylmethyl)-amine], the “MIC value ATCC 6538” value in test [1] was found to be 7.5. Further, the “MIC value ATCC 10536” value in [2] is less than 3.75. The MIC in test [3] was 3.75; in [4] it was 3.75; in test [5], 7.5; in test [6], 1.88; in [7] it was more than 120; in test [8] it was 3.75. The MIC in test [9] is on record as 1.88; in test [10] it was more than 120; in [11] it was more than 120; in test [12], 3.75; in [13], 7.5; in [14], more than 120. Moreover, the MIC in test [15] and in test [16] was 3.75 each time.
`CCCCCCCCCCNCc1ccc(-c2ccc(CNCCCCCCCCCC)cc2)cc1` [Compound of formula 4]: the “MIC value ATCC 6538” value in [1] was found to be 30. Further, the “MIC value ATCC 10536” value in test [2] is given as 15.
Take `CCCCCCCCCCCNCc1ccc(-c2ccc(CNCCCCCCCCCCC)cc2)cc1` [Compound of formula 5]: the “MIC value ATCC 6538” value in test [1] amounted to 30. The “MIC value ATCC 10536” value in test [2] was 30.
`CCCCCCCCCCCCCNCc1ccc(-c2ccc(CNCCCCCCCCCCCCC)cc2)cc1` [Compound of formula 6]: in test [1], the “MIC value ATCC 6538” value came to 30. The “MIC value ATCC 10536” value in test [2] is recorded as 30.
In the case of `CC(C)NCc1ccc(-c2ccc(CNC(C)C)cc2)cc1` [Compound of formula 7], in [1], the “MIC value ATCC 6538” value is reported as 15. In test [2], the “MIC value ATCC 10536” value was 30.
The like results for `CCC(C)NCc1ccc(-c2ccc(CNC(C)CC)cc2)cc1` (centres unmarked) [Compound of formula 8] were, in that order, 15 and 60.
Regarding `CC(C)(C)NCc1ccc(-c2ccc(CNC(C)(C)C)cc2)cc1` [Compound of formula 9], the “MIC value ATCC 6538” value in test [1] was determined as 60. For the same compound, in [2], the “MIC value ATCC 10536” value is given as more than 120.
Take `CCCC(C)NCc1ccc(-c2ccc(CNC(C)CCC)cc2)cc1` (centres unmarked) [Compound of formula 10]: the “MIC value ATCC 6538” value in [1] was 15. In addition, in test [2], the “MIC value ATCC 10536” value is given as 30.
In the case of `CC(C)CCNCc1ccc(-c2ccc(CNCCC(C)C)cc2)cc1` [Compound of formula 11], in [1], the “MIC value ATCC 6538” value is 30. Moreover, the “MIC value ATCC 10536” value in test [2] was found to be 30.
For the compound `CC(C)CC(C)NCc1ccc(-c2ccc(CNC(C)CC(C)C)cc2)cc1` (centres unmarked) [Compound of formula 12], the “MIC value ATCC 6538” value in test [1] was 30. The “MIC value ATCC 10536” value in test [2] amounted to 60.
For the compound `CCCCC(CC)CNCc1ccc(-c2ccc(CNCC(CC)CCCC)cc2)cc1` (centres unmarked) [Compound of formula 13], the “MIC value ATCC 6538” value in test [1] is 7.5. Moreover, the “MIC value ATCC 10536” value in test [2] was found to be 7.5.
For `COCC(C)NCc1ccc(-c2ccc(CNC(C)COC)cc2)cc1` (centres unmarked) [Compound of formula 14], the “MIC value ATCC 6538” value in test [1] came to 30. Also, the “MIC value ATCC 10536” value in test [2] is reported as more than 120.
On to `c1ccc(CNCc2ccc(-c3ccc(CNCc4ccccc4)cc3)cc2)cc1` [Compound of formula 15], for which the “MIC value ATCC 6538” value in test [1] is listed as 120. The “MIC value ATCC 10536” value in test [2] was found to be 120.
For `c1cc(-c2ccc(CNC3CCCCC3)cc2)ccc1CNC1CCCCC1` [Compound of formula 16], the “MIC value ATCC 6538” value in test [1] came to 60. Further, the “MIC value ATCC 10536” value in test [2] is 120.
`c1ccc(CCNCc2ccc(-c3ccc(CNCCc4ccccc4)cc3)cc2)cc1` [Compound of formula 17]: in test [1], the “MIC value ATCC 6538” value was 15. For the same compound, the “MIC value ATCC 10536” value in test [2] amounted to 15.
For the compound `c1cc(-c2ccc(CN3CCOCC3)cc2)ccc1CN1CCOCC1` [Compound of formula 18], the “MIC value ATCC 6538” value in [1] is more than 120. Besides, the “MIC value ATCC 10536” value in test [2] was more than 120.
As for `CC(=O)N1CCN(Cc2ccc(-c3ccc(CN4CCN(C(C)=O)CC4)cc3)cc2)CC1` [Compound of formula 19], in test [1], the “MIC value ATCC 6538” value is recorded as more than 120. The “MIC value ATCC 10536” value in test [2] is given as more than 120.
As for `c1coc(CNCc2ccc(-c3ccc(CNCc4ccco4)cc3)cc2)c1` [Compound of formula 20], in test [1], the “MIC value ATCC 6538” value is more than 120. For the same compound, the “MIC value ATCC 10536” value in test [2] is more than 120.
Take `CCCCN(C)Cc1ccc(-c2ccc(CN(C)CCCC)cc2)cc1` [Compound of formula 21]: in test [1], the “MIC value ATCC 6538” value is more than 120. In [2], the “MIC value ATCC 10536” value stood at 120.
Take `CCCCCCCCCCCCN(C)Cc1ccc(-c2ccc(CN(C)CCCCCCCCCCCC)cc2)cc1` [Compound of formula 22]: the “MIC value ATCC 6538” value in test [1] is given as 15. The “MIC value ATCC 10536” value in [2] worked out at 15.
Turning to `CCN(CC)Cc1ccc(-c2ccc(CN(CC)CC)cc2)cc1` [Compound of formula 23], the “MIC value ATCC 6538” value in [1] is listed as 15. In addition, the “MIC value ATCC 10536” value in [2] is listed as more than 120.
In the same order, the values of `CCCN(CCC)Cc1ccc(-c2ccc(CN(CCC)CCC)cc2)cc1` [Compound of formula 24] are more than 120 and more than 120.
With `CCCCN(CCCC)Cc1ccc(-c2ccc(CN(CCCC)CCCC)cc2)cc1` [Compound of formula 25], in test [1], the “MIC value ATCC 6538” value is reported as more than 120. For the same compound, the “MIC value ATCC 10536” value in test [2] was more than 120.
For the compound `CCCCCN(CCCCC)Cc1ccc(-c2ccc(CN(CCCCC)CCCCC)cc2)cc1` [Compound of formula 26], the “MIC value ATCC 6538” value in test [1] is reported as 30. For the same compound, the “MIC value ATCC 10536” value in test [2] is more than 120.
Consider `CCCCCCN(CCCCCC)Cc1ccc(-c2ccc(CN(CCCCCC)CCCCCC)cc2)cc1` [Compound of formula 27], for which the “MIC value ATCC 6538” value in test [1] worked out at 15. The “MIC value ATCC 10536” value in test [2] was more than 120.
For the compound `CCCCCCCCN(CCCCCCCC)Cc1ccc(-c2ccc(CN(CCCCCCCC)CCCCCCCC)cc2)cc1` [Compound of formula 28], in test [1], the “MIC value ATCC 6538” value is listed as 7.5. Also, the “MIC value ATCC 10536” value in test [2] turned out to be 15.
In the case of `c1ccc(CN(Cc2ccccc2)Cc2ccc(-c3ccc(CN(Cc4ccccc4)Cc4ccccc4)cc3)cc2)cc1` [Compound of formula 29], in test [1], the “MIC value ATCC 6538” value is recorded as more than 120. The “MIC value ATCC 10536” value in test [2] is more than 120.
On to `CN(CCO)Cc1ccc(-c2ccc(CN(C)CCO)cc2)cc1` [Compound of formula 30], for which, in test [1], the “MIC value ATCC 6538” value is given as more than 120. Also, the “MIC value ATCC 10536” value in test [2] is recorded as more than 120.
As to `c1cc(-c2ccc(CN3CCCCCC3)cc2)ccc1CN1CCCCCC1` [Compound of formula 31], the “MIC value ATCC 6538” value in [1] came out at 60. Also, in [2], the “MIC value ATCC 10536” value is 120.
